From patent US10034477B2, “Pyrido-1,3-oxazine-2,4-dione compounds with fungicidal activity” (Dow AgroSciences LLC, priority 2016, dated 2018)
Read-outs that look alike come from different tables or passages of the source.

Columns and labels:
Phakopsora pachyrhizi = experiment: Fungicidal activity: Asian soybean rust (PHAKPA), disease control on soybean seedlings; assay type: in vivo; conditions: soybean (variety Williams 82)
Procedure: Technical grades of materials were dissolved in acetone, which were then mixed with nine volumes of H2O containing 0.011% Tween 20. The fungicide solutions were applied onto soybean seedlings using an automated booth sprayer to run-off. All sprayed plants were allowed to air dry prior to further handling. Soybean plants (variety Williams 82) were grown in soil-less Metro mix, with one plant per pot. Two week old seedlings were used for testing. Plants were inoculated either 3 days prior to or 1 day after fungicide treatments. Plants were incubated for 24 h in a dark dew room at 22° C. and 100% relative humidity then transferred to a growth room at 23° C. for disease to develop. Disease severity was assessed on the sprayed leaves.

Zymoseptoria tritici = experiment: Fungicidal activity: leaf blotch of wheat (SEPTTR), disease control on wheat seedlings; assay type: in vivo; conditions: LV activity at 121.5 g/H, wheat (variety Yuma)
Procedure: (§1) Technical grades of materials were dissolved in acetone, which were then mixed with nine volumes of water (H2O) containing 110 ppm Triton X-100. The fungicide solutions were applied onto wheat seedlings using an automated booth sprayer to run-off. All sprayed plants were allowed to air dry prior to further handling. All fungicides were evaluated using the aforementioned method for their activity vs. all target diseases, unless stated otherwise. Wheat leaf blotch and brown rust activity were also evaluated using track spray applications, in which case the fungicides were formulated as EC formulations, containing 0.1% Trycol 5941 in the spray solutions. Wheat plants (variety Yuma) were grown from seed in a greenhouse in 50% mineral soil/50% soil-less Metro mix until the first leaf was fully emerged, with 7-10 seedlings per pot. These plants were inoculated with an aqueous spore suspension of Zymoseptoria tritici either prior to or after fungicide treatments. After inoculation the plants were kept in 100% relative humidity (one day in a dark dew chamber followed by two to three days in a lighted dew chamber at 20° C.) to permit spores to germinate and infect the leaf. The plants were then transferred to a greenhouse set at 20° C. for disease to develop. When disease symptoms were fully expressed on the 1st leaves of untreated plants, infection levels were assessed on a scale of 0 to 100 percent disease severity. Percent disease control was calculated using the ratio of disease severity on treated plants relative to untreated plants.

Puccinia triticina = experiment: Fungicidal activity: wheat brown rust (PUCCRT), disease control on wheat seedlings; assay type: in vivo; conditions: LV activity at 121.5 g/H, wheat (variety Yuma)
Procedure: as §1, with “plants. Wheat plants (variety Yuma) were grown from seed in a greenhouse in 50% mineral soil/50% soil-less Metro mix until the first leaf was fully emerged, with 7-10 seedlings per pot. These plants were inoculated with an aqueous spore suspension of Puccinia triticina either prior to or after fungicide treatments. After inoculation the plants were kept in a dark dew room at 22° C. with 100% relative humidity overnight to permit spores to germinate and infect the leaf. The plants were then transferred to a greenhouse set at 24° C. for disease to develop. Fungicide formulation, application and disease assessment followed the procedures as described in the Example A. Results of the evaluations are shown below in Table 4.” for “plants.”

[1] = 24 h, 1 Day Protectant, read-out: PHAKPA 1DP disease control rating
[2] = 24 h, 1 Day Protectant, read-out: SEPTTR 1DP disease control rating
[3] = 72 h, 3 Day Curative, read-out: SEPTTR 3DC disease control rating
[4] = 24 h, 1 Day Protectant, read-out: PUCCRT 1DP disease control rating
[5] = 72 h, 3 Day Curative, read-out: PUCCRT 3DC disease control rating
[6] = 72 h, 3 Day Curative, read-out: PHAKPA 3DC disease control rating

SMILES: COc1ccnc2c(=O)n([C@@H](C)C(=O)O[C@@H](C)C(c3ccc(F)cc3)c3ccc(F)cc3)c(=O)oc12 [Compound 1]
- melting point: 68 to 84 °C
- pest or weed control at 25 ppm (Phakopsora pachyrhizi; [1]): ≤ 80%
- pest or weed control at 121.5 g/ha (Zymoseptoria tritici; [2]): > 80%
- pest or weed control at 121.5 g/ha (Zymoseptoria tritici; [3]): > 80%
- pest or weed control at 121.5 g/ha (Puccinia triticina; [4]): > 80%
- pest or weed control at 121.5 g/ha (Puccinia triticina; [5]): ≤ 80%

SMILES: COc1cc(Cl)ccc1C(c1ccc(Cl)cc1OC)[C@H](C)OC(=O)[C@H](C)n1c(=O)oc2c(OC)ccnc2c1=O [Compound 26]
- pest or weed control at 25 ppm (Phakopsora pachyrhizi; [1]): ≤ 80%
- pest or weed control at 121.5 g/ha (Zymoseptoria tritici; [2]): > 80%
- pest or weed control at 121.5 g/ha (Zymoseptoria tritici; [3]): > 80%
- pest or weed control at 121.5 g/ha (Puccinia triticina; [4]): > 80%

SMILES: COc1ccnc2c(=O)n([C@@H](C)C(=O)O[C@@H](C)C(c3ccc(Cl)cc3)c3ccc(Cl)cc3)c(=O)oc12 [Compound 27]
- pest or weed control at 25 ppm (Phakopsora pachyrhizi; [1]): ≤ 80%
- pest or weed control at 25 ppm (Phakopsora pachyrhizi; [6]): ≤ 80%
- pest or weed control at 121.5 g/ha (Zymoseptoria tritici; [2]): > 80%
- pest or weed control at 121.5 g/ha (Zymoseptoria tritici; [3]): > 80%
- pest or weed control at 121.5 g/ha (Puccinia triticina; [4]): ≤ 80%

SMILES: COc1ccnc2c(=O)n([C@@H](C)C(=O)O[C@@H](C)[C@@H](c3ccccc3)c3ccc(C(F)(F)F)cc3)c(=O)oc12 [Compound 28]
- pest or weed control at 25 ppm (Phakopsora pachyrhizi; [6]): ≤ 80%
- pest or weed control at 121.5 g/ha (Zymoseptoria tritici; [2]): > 80%
- pest or weed control at 121.5 g/ha (Zymoseptoria tritici; [3]): > 80%
- pest or weed control at 121.5 g/ha (Puccinia triticina; [4]): ≤ 80%
- pest or weed control at 121.5 g/ha (Puccinia triticina; [5]): ≤ 80%

SMILES: COc1ccnc2c(=O)n([C@@H](C)C(=O)O[C@H](C(C)C)[C@H](C)Oc3ccc(C)cc3)c(=O)oc12 [Compound 30]
- pest or weed control at 25 ppm (Phakopsora pachyrhizi; [1]): ≤ 80%
- pest or weed control at 121.5 g/ha (Zymoseptoria tritici; [2]): ≤ 80%
- pest or weed control at 121.5 g/ha (Zymoseptoria tritici; [3]): ≤ 80%
- pest or weed control at 121.5 g/ha (Puccinia triticina; [4]): > 80%
- pest or weed control at 121.5 g/ha (Puccinia triticina; [5]): ≤ 80%

SMILES: CCC[C@@H](Oc1ccc(C)cc1)[C@H](C)OC(=O)[C@H](C)n1c(=O)oc2c(OC)ccnc2c1=O [Compound 31]
- pest or weed control at 25 ppm (Phakopsora pachyrhizi; [1]): ≤ 80%
- pest or weed control at 25 ppm (Phakopsora pachyrhizi; [6]): ≤ 80%
- pest or weed control at 121.5 g/ha (Zymoseptoria tritici; [3]): ≤ 80%
- pest or weed control at 121.5 g/ha (Puccinia triticina; [4]): > 80%
- pest or weed control at 121.5 g/ha (Puccinia triticina; [5]): ≤ 80%

SMILES: COc1ccnc2c(=O)n([C@@H](C)C(=O)O[C@@H](C)C(c3ccc(C)cc3)c3ccc(C)cc3)c(=O)oc12 [Compound 32, (S)-1,1-di-p-tolylpropan-2-yl-(S)-2-(8-methoxy-2,4-dioxo-2H-pyrido[2,3-e][1,3]oxazin-3(4H)-yl)propanoate]
- pest or weed control at 25 ppm (Phakopsora pachyrhizi; [1]): ≤ 80%
- pest or weed control at 25 ppm (Phakopsora pachyrhizi; [6]): ≤ 80%
- pest or weed control at 121.5 g/ha (Zymoseptoria tritici; [2]): > 80%
- pest or weed control at 121.5 g/ha (Zymoseptoria tritici; [3]): > 80%
- pest or weed control at 121.5 g/ha (Puccinia triticina; [4]): > 80%
- pest or weed control at 121.5 g/ha (Puccinia triticina; [5]): ≤ 80%

SMILES: COc1ccnc2c(=O)n([C@@H](C)C(=O)O[C@@H](C)[C@@H](c3ccc(C)cc3)c3ccc(F)cc3C)c(=O)oc12 [Compound 33]
- pest or weed control at 25 ppm (Phakopsora pachyrhizi; [1]): > 80%
- pest or weed control at 25 ppm (Phakopsora pachyrhizi; [6]): ≤ 80%
- pest or weed control at 121.5 g/ha (Zymoseptoria tritici; [2]): > 80%
- pest or weed control at 121.5 g/ha (Zymoseptoria tritici; [3]): > 80%
- pest or weed control at 121.5 g/ha (Puccinia triticina; [4]): > 80%
- pest or weed control at 121.5 g/ha (Puccinia triticina; [5]): ≤ 80%
